What was measured:
[1] = target: Cathepsin S (Homo sapiens, UniProt P25774); assay: Cathepsin S inhibition assay (fluorogenic peptide substrate); format: biochemical; details: Table II, compounds of Formula I; read-out: Ki Cat. S
Summary of the method: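 Ki values come from nonlinear fitting of inhibited hydrolysis rates, taking free and total inhibitor concentrations as equal. Rates measured as rising fluorescence at 380/450 nm after reaction start with 50 μM final acetyl-HPVK-aminocarbamoylcoumarin.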

[2] = target: T1, Cathepsin K (Homo sapiens, UniProt P43235); assay: Cathepsin K inhibition assay (fluorogenic peptide substrate); selectivity ratio vs cathepsin S; format: biochemical; details: ratio of cathepsin K inhibition constant to cathepsin S inhibition constant; Table II
T1 sequence (P43235 115-329): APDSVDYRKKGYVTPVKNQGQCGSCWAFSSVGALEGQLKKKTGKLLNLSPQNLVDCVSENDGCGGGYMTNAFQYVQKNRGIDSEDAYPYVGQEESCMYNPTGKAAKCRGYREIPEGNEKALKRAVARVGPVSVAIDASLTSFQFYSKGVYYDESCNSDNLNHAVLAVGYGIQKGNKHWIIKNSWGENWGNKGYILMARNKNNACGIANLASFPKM
Summary of the method: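 Fluorogenic kinetic assay, started with acetyl-Lys-His-Pro-Lys-aminocarbamoylcoumarin at 40 μM final, hydrolysis followed at ex 380/em 450 nm. Apparent inhibition constants from progress curves, converted to competitive inhibition constants. Selectivity expressed as isozyme inhibition constant divided by cathepsin S inhibition constant.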

Sequence of Cathepsin S (P25774 115-331, species assumed): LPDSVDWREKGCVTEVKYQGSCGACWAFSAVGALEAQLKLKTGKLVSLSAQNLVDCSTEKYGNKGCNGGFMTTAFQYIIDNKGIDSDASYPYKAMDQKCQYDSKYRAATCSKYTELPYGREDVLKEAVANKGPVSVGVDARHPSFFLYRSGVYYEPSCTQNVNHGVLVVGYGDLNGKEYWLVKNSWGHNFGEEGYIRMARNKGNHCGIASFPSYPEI

Compound	Ki [1] [nM]	Selectivity for Cat. S over Cat. K [2]
O=C(N[C@@H](CC1CCCCC1)C(=O)NCCNc1ccc(OC(F)(F)F)cc1)c1ccc(-c2cccc(F)c2)cc1 [Compound 198, (S)-3′-Fluoro-biphenyl-4-carboxylic acid {2-cyclohexyl-1-[2-(4-trifluoromethoxy-phenylamino)-ethylcarbamoyl]-ethyl}-amide]	< 1000	+ (+, >10)
COc1ccc(NCCNC(=O)[C@H](CCC2CCCCC2)NC(=O)c2ccc(-n3cncn3)cc2)cc1 [Compound 143, (S)-N-{3-Cyclohexyl-1-[2-(4-methoxy-phenylamino)-ethylcarbamoyl]-propyl}-4-[1,2,4]triazol-1-yl-benzamide]	< 1000	++ (++, >100)
COc1ccc(NCCNC(=O)[C@H](CC2CCCCC2)NC(=O)c2cc(-c3ccc(OC)cc3)cs2)cc1 [Compound 191, (S)-4-(4-Methoxy-phenyl)-thiophene-2-carboxylic acid {2-cyclohexyl-1-[2-(4-methoxy-phenylamino)-ethylcarbamoyl]-ethyl}-amide]	< 100	+ (+, >10)
O=C(Cc1ccc(Cl)cc1)N[C@@H](CC1CCCCC1)C(=O)NCCNc1ccc(F)cc1 [Compound 305, 2-(S)-[2-(4-Chloro-phenyl)-acetylamino]-3-cyclohexyl-N-[2-(4-fluoro-phenylamino)-ethyl]-propionamide]	< 100	++ (++, >100)
COc1ccc(NCCNC(=O)[C@H](CC2CCCCC2)NC(=O)c2cccc(-c3csc(C)n3)c2)cc1 [Compound 123, (S)-N-{2-Cyclohexyl-1-[2-(4-methoxy-phenylamino)-ethylcarbamoyl]-ethyl}-3-(2-methyl-thiazol-4-yl)-benzamide]	< 100	++ (++, >100)
O=C(N[C@@H](CC1CCCCC1)C(=O)NCCNc1ccc(OC(F)(F)F)cc1)c1ccc(-c2cccc(F)c2)o1 [Compound 31, 5-(3-Fluoro-phenyl)-furan-2-carboxylic acid (S)-{2-cyclohexyl-1-[2-(4-trifluoromethoxy-phenylamino)-ethylcarbamoyl]-ethyl}-amide]	< 100	+ (+, >10)
O=C(N[C@@H](CC1CCCCC1)C(=O)NCCNc1ccc(OC(F)(F)F)cc1)c1onc2ccccc12 [Compound 59, Benzo[c]isoxazole-3-carboxylic acid (S)-{2-cyclohexyl-1-[2-(4-trifluoromethoxy-phenylamino)-ethylcarbamoyl]-ethyl}-amide]	< 1000	++ (++, >100)
O=C(N[C@@H](CC1CCCCC1)C(=O)NCCNc1ccc(OC(F)(F)F)cc1)c1ccc(-n2cncn2)cc1 [Compound 221, (S)-N-{2-Cyclohexyl-1-[2-(4-trifluoromethoxy-phenylamino)-ethylcarbamoyl]-ethyl}-4-[1,2,4]triazol-1-yl-benzamide]	< 100	+ (+, >10)
O=C(N[C@@H](CC1CCCCC1)C(=O)NCCNc1ccc(OC(F)(F)F)cc1)c1ccc(-c2ccc(C(F)(F)F)cc2)o1 [Compound 213, (S)-5-(4-Trifluoromethyl-phenyl)-furan-2-carboxylic acid {2-cyclohexyl-1-[2-(4-trifluoromethoxy-phenylamino)-ethylcarbamoyl]-ethyl}-amide]	< 100	+++ (+++, >1000)
COc1ccc(NCCNC(=O)[C@H](Cc2ccc(Oc3ccc(N(C)C)cc3)cc2)NC(=O)c2cccc(C)c2)cc1 [Compound 33, (S)-N-{2-[4-(4-Dimethylamino-phenoxy)-phenyl]-1-[2-(4-methoxy-phenylamino)-ethylcarbamoyl]-ethyl}-3-methyl-benzamide]	< 10000	+ (+, >10)
O=C(N[C@@H](CC1CCCCC1)C(=O)NCCNc1ccc(OC(F)(F)F)cc1)c1ccc(-c2ccccc2C(F)(F)F)o1 [Compound 219, (S)-5-(2-Trifluoromethyl-phenyl)-furan-2-carboxylic acid {2-cyclohexyl-1-[2-(4-trifluoromethoxy-phenylamino)-ethylcarbamoyl]-ethyl}-amide]	< 100	++ (++, >100)
COc1ccc(NCCNC(=O)[C@H](CCc2ccccc2)NC(=O)c2ccc(-c3cccc(C(F)(F)F)c3)o2)cc1 [Compound 1, N-((S)-1-(2-(4-methoxyphenylamino)ethylcarbamoyl)-3-phenylpropyl)-5-(3-(trifluoromethyl)phenyl)furan-2-carboxamide]	< 1000	++ (++, >100)
COc1ccc(NCCNC(=O)C(NC(=O)c2cccc(C)c2)c2ccc(Cl)cc2Cl)cc1 (stereo not shown) [Compound 222, N-{(2,4-Dichloro-phenyl)-[2-(4-methoxy-phenylamino)-ethylcarbamoyl]-methyl}-3-methyl-benzamide]	< 100	+++ (+++, >1000)
COc1ccc(NCCNC(=O)[C@H](CC2CCCCC2)NC(=O)c2cc(F)ccc2C)cc1 [Compound 157, (S)-N-{2-Cyclohexyl-1-[2-(4-methoxy-phenylamino)-ethylcarbamoyl]-ethyl}-5-fluoro-2-methyl-benzamide]	< 100	+++ (+++, >1000)
O=C(N[C@@H](CC1CCCCC1)C(=O)NCCNc1ccc(F)cc1)c1ccco1 [Compound 264, Furan-2-carboxylic acid (S)-{2-cyclohexyl-1-[2-(4-fluoro-phenylamino)-ethylcarbamoyl]-ethyl}-amide]	< 100	++ (++, >100)
CC[C@@H](C(=O)N[C@@H](CC1CCCCC1)C(=O)NCCNc1ccc(F)cc1)c1ccccc1 [Compound 318, N-{2-cyclohexyl-1-(S)-[2-(4-fluoro-phenylamino)-ethylcarbamoyl]-ethyl}-2-(R)-phenyl-butyramide]	< 100	+ (+, >10)
O=C(Cc1ccc(C(F)(F)F)cc1)N[C@@H](CC1CCCCC1)C(=O)NCCNc1ccc(F)cc1 [Compound 325, 3-Cyclohexyl-N-[2-(4-fluoro-phenylamino)-ethyl]-2-(S)-[2-(4-trifluoromethyl-phenyl)-acetylamino]-propionamide]	< 100	++ (++, >100)
COc1ccc(NCCNC(=O)[C@H](CCC2CCCCC2)NC(=O)c2cccc(C#N)c2)cc1 [Compound 139, (S)-3-Cyano-N-{3-cyclohexyl-1-[2-(4-methoxy-phenylamino)-ethylcarbamoyl]-propyl}-benzamide]	< 100	+++ (+++, >1000)
COc1ccc(NCCNC(=O)[C@H](CC2CCCCC2)NC(=O)c2cccc(C(F)(F)F)c2)cc1 [Compound 106, (S)-N-{2-Cyclohexyl-1-[2-(4-methoxy-phenylamino)-ethylcarbamoyl]-ethyl}-3-trifluoromethyl-benzamide]	< 100	++ (++, >100)
Cc1cc(C)nc(N2CCC(C(=O)N[C@@H](CC3CCCCC3)C(=O)NCCNc3ccc(OC(F)(F)F)cc3)CC2)n1 [Compound 72, 1-(4,6-Dimethyl-pyrimidin-2-yl)-piperidine-4-carboxylic acid (S)-{2-cyclohexyl-1-[2-(4-trifluoromethoxy-phenylamino)-ethylcarbamoyl]-ethyl}-amide]	< 10000	++ (++, >100)
COc1ccc(NCCNC(=O)[C@H](CC2CCCCC2)NC(=O)[C@H](O)c2ccccc2)cc1 [Compound 160, 3-Cyclohexyl-2-(S)-(2-(R)-hydroxy-2-phenyl-acetylamino)-N-[2-(4-methoxy-phenylamino)-ethyl]-propionamide]	< 10000	++ (++, >100)
O=C(N[C@@H](CC1CCCCC1)C(=O)NCCNc1ccc(OC(F)(F)F)cc1)c1ccc(Oc2ccccc2)cc1 [Compound 141, N-{2-cyclohexyl-1-(S)-[2-(4-trifluoromethoxy-phenylamino)-ethylcarbamoyl]-ethyl}-4-phenoxy-benzamide]	< 100	+ (+, >10)
COc1ccc(NCCNC(=O)[C@H](Cc2ccc(-c3cccc(C(C)=O)c3)cc2)NC(=O)c2cccc(C)c2)cc1 [Compound 290, (S)-N-{2-(3′-Acetyl-biphenyl-4-yl)-1-[2-(4-methoxy-phenylamino)-ethylcarbamoyl]-ethyl}-3-methyl-benzamide]	< 100	+++ (+++, >1000)
COc1ccc(NCCNC(=O)[C@H](Cc2ccccc2)NC(=O)c2cccc3c2OCC3)cc1 [Compound 52, (S)-2,3-Dihydro-benzofuran-7-carboxylic acid {1-[2-(4-methoxy-phenylamino)-ethylcarbamoyl]-2-phenyl-ethyl}-amide]	< 10000	+ (+, >10)
O=C(O)c1ccc(NCCNC(=O)[C@H](CC2CCCCC2)NC(=O)c2ccc(-c3cccc(C(F)(F)F)c3)o2)cc1 [Compound 11, 4-[2-(3-Cyclohexyl-2-(S)-{[5-(3-trifluoromethyl-phenyl)-furan-2-carbonyl]-amino}-propionylamino)-ethylamino]-benzoic acid]	< 100	+ (+, >10)
COc1ccc(NCCNC(=O)[C@H](Cc2ccc(Oc3ccccc3)cc2)NC(=O)c2cccc(C)c2)cc1 [Compound 327, (S)-N-[1-[2-(4-Methoxy-phenylamino)-ethylcarbamoyl]-2-(4-phenoxy-phenyl)-ethyl]-3-methyl-benzamide]	< 1000	++ (++, >100)
